Assay results: paper PMC3839997, “Identification of Glucose Transporters in Aspergillus nidulans” (PLoS ONE, 2013)

Key:
HxtC [1] = target: T1, HxtC (Aspergillus nidulans, UniProt C8VDD8); test: competition of […]glucose uptake in S. cerevisiae EBY.VW4000 expressing the transporter; type: cell-based; conditions: tenfold excess of unlabelled sugar over [14C]glucose
T1 construct: gene ANIA_10891; full-length ORF from cDNA, untagged (with stop codon), expressed from pRH195 in S. cerevisiae EBY.VW4000; strain A4 given for the GFP construct

HxtC [2] = target: T1, HxtC; test: […]glucose uptake in S. cerevisiae EBY.VW4000 expressing the transporter; type: cell-based; conditions: labelled compound; 30 °C; proton symport

T1 sequence (C8VDD8 entry or part of it): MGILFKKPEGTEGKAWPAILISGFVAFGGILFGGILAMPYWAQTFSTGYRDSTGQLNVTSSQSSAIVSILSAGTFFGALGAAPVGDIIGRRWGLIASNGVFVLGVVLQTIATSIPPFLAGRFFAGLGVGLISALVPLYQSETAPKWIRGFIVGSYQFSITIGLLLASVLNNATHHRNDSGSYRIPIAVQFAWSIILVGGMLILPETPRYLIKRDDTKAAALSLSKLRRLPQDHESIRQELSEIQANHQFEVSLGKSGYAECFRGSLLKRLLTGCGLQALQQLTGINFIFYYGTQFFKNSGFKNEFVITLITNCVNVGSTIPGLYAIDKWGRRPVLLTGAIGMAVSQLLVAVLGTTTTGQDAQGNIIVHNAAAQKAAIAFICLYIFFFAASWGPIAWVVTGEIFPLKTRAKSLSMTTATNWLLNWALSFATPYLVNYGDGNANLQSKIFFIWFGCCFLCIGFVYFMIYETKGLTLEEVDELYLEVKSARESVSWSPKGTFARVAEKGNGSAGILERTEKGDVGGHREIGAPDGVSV

Row | SMILES | % inhibition (HxtC [1]) | [14C]glucose uptake in S. cerevisiae EBY.VW4000 expressing the transporter (HxtC [2])
1 | OCC1(O)OC[C@@H](O)[C@@H](O)[C@@H]1O (some centres unmarked) [fructose] | unlabeled maltose, galactose, fructose and mannose were also able to inhibit to different levels | 
2 | OC[C@H]1OC(O)[C@H](O)[C@@H](O)[C@H]1O (some centres unmarked) [galactose] | unlabeled maltose, galactose, fructose and mannose were also able to inhibit to different levels | 
3 | OC[C@H]1OC(O)[C@H](O)[C@@H](O)[C@@H]1O (some centres unmarked) [glucose] |  | these data suggested that HxtB, HxtC, and HxtE mediated glucose transport via active proton symport
4 | OC[C@H]1O[C@H](O[C@H]2[C@H](O)[C@@H](O)C(O)O[C@@H]2CO)[C@H](O)[C@@H](O)[C@@H]1O (some centres unmarked) [maltose] | unlabeled maltose, galactose, fructose and mannose were also able to inhibit to different levels | 
5 | OC[C@H]1OC(O)[C@@H](O)[C@@H](O)[C@@H]1O (some centres unmarked) [mannose] | unlabeled maltose, galactose, fructose and mannose were also able to inhibit to different levels | 
